Measurements published in paper PMC10864275, “Binding kinetics drive G protein subtype selectivity at the β1-adrenergic receptor” (Nature Communications, 2024).

Biological target: T1, β1AR-E signalling via Gs (Meleagris gallopavo, UniProt P07700, C116L/C358A/DEL244-271/F327A/F338A/M179L/M281A/M44L/M48L/R68S)
T1 construct: expressed in transfected cells; host or cells: HEK293T
Assay type: cell-based, turkey
Details: G protein not given
From the text: We next assessed G protein coupling using the TRUPATH BRET2 biosensor assay[46] (Supplementary Fig. 2c) expressed in HEK293T cells, allowing examination of signalling via the canonical coupling partner Gs. […] Therefore, the TRUPATH and ligand binding assays confirmed that reversal of the thermostabilising mutation increased receptor activity without impacting ligand affinity. Also, although less efficacious, the thermostabilised β1AR-W construct still retained functional G protein coupling.
For Gq, a constitutively active mutated version (R183Q) was used to increase the sensitivity for detection of Gq activation. After 24 h, cells were harvested and seeded onto PLL-coated white 96-well plates (Greiner Bio-One) at a density of 50,000 cells per well. […] The plate was then incubated for 10 min at room temperature in the dark.

T1 sequence (P07700 other isoform, or with tags, fused parts or gaps with the stated changes): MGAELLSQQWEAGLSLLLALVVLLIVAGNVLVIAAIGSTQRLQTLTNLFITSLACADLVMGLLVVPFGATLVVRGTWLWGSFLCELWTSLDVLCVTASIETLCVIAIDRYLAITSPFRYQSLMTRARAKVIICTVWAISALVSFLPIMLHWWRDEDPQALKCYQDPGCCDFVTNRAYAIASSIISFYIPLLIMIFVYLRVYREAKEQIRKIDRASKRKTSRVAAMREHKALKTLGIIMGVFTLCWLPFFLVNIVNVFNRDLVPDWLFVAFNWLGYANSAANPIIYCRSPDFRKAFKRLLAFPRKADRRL

Row | SMILES | potency in TRUPATH assays relative to isoprenaline
1 | CC(C)(C)NCC(O)c1ccc(O)c(CO)c1 (centres unmarked) [Sal., salbutamol] | decreased potency
2 | O=C(NCCNCC(O)COc1ccc(O)cc1)N1CCOCC1 (centres unmarked) [Xam., xamoterol] | decreased potency
